The values that follow come from publication PMC9415947 (Pharmaceuticals, 2022).

Like-named read-outs stand apart in the source and are kept apart here.

Data set [1] can be described thus: Kinetic solubility, shake-flask protocol. The class given is physicochemical. The following applies: aqueous buffer, kinetic from dmso stock; phosphate-buffered saline pH 7.4, 25 °C.
Data set [2] addresses T1, PI3Kδ (Homo sapiens, UniProt O00329).
T1 construct: purchased Merck Millipore
The data set can be described thus: In vitro PI3K inhibition assay (ADP-Glo kinase assay), PI3Kδ. The data set is classed as biochemical. Conditions: mean of two independent experiments. The protocol:
(§1) All compounds were tested in a biochemical assay that measured the inhibition of phosphatidylinositol […] production by PI3K isoforms using the ADP-Glo kinase assay (Promega). In addition, the effects of synthesized compounds on B cell proliferation were measured.
(§2) The potency and selectivity of compounds were assessed by measuring the ability of PI3K kinases to convert ATP to ADP during an enzymatic reaction in the presence of decreasing doses of tested compounds. The experiments were carried out using the ADP-Glo kinase assay kit (Promega), according to the manufacturer’s protocol. PI3Kα, PI3Kβ, PI3Kδ, and PI3Kγ have been purchased from Merck Millipore and phosphoinositol-4,5-bisphosphate (PIP2) lipid vesicles with phosphoserine from ThermoFisher Scientific were used as a substrate in the enzymatic reaction.
(§3) After the reaction, the ADP-Glo reagent and the kinase detection reagent were added sequentially with 40 min of incubation (25 °C, 600 rpm) after adding each reagent. Finally, the luminescence intensity was measured and the IC50 was calculated using GraphPad Prism 7 software. The presented results are the mean value of IC50 from at least two independent experiments.
For orientation: ADP-Glo turns the ADP formed in a reaction into a luminescent signal.

The nature of data set [3]: Metabolic stability in human liver microsomes (HLM). The class given is in vitro ADME. The following applies: read-out: Metabolic Stability HLM t½. Background: Liver microsomes are a subcellular fraction often used to study metabolism.
A short description of data set [4]: PAMPA permeability. The data set is classed as in vitro ADME. (The PAMPA barrier holds no transporters, so it reflects passive diffusion.)
Data set [5] can be described thus: Bioavailability in dogs. The following applies: dog, in vivo, depending on the formulation form, read-out: bioavailability F.
Data set [6] concerns the target T2, PI3Kβ (Homo sapiens, UniProt P42338).
T2 construct: purchased Merck Millipore
Put plainly: In vitro PI3K inhibition assay (ADP-Glo kinase assay), PI3Kβ. The data set is classed as biochemical. Conditions: for IC50: mean of two independent experiments; for Fold Selectivity β/δ: ratio IC50 PI3Kβ / IC50 PI3Kδ. The procedure:
as §1, §2, §3

Data set [7] concerns CD19+ B cells. Put plainly: B cell (CD19+) proliferation assay, CFSE flow cytometry. Conditions: Homo sapiens, 96 h, read-out: IC50 CD19. The data set is classed as cell-based. The procedure: CD19 cells were isolated from PBMCs using magnetic beads (Stem Cell (Vancouver, Canada)) and then labeled with 2 µM of CFSE (Invitrogen (Waltham, MA, USA)).
After 4 days, cells were stained with LIVE/DEAD™ kit (Invitrogen (Waltham, MA, USA)). Samples were acquired using Attune NxT flow cytometer (Invitrogen) and analyzed using FlowJo software. Each biological assay was performed with cells isolated from a different donor. The presented results constitute the average percentage values of proliferating cells from 3 independent experiments.
Human PBMCs were isolated from buffy coats of healthy donors obtained from the Regional Blood Donation and Blood Medicine Center in Warsaw. Lymphocytes B: CD19+ cells were isolated from PBMCs on magnetic beads (Stem Cell), labeled with 2 µM CFSE (Invitrogen), and seeded on a 96-well plate (1 × 10^5 cells/well). B cells were activated by 2 µg/mL of αIgM (Jackson ImmunoResearch) and 1 µg/mL of ODN2006 (InvivoGen). Cells were incubated with increasing concentrations of compounds (range 0.03–10,000 nM). After 4 days, B cells were stained with LIVE/DEAD™ kit (Invitrogen), acquired using the Attune NxT flow cytometer (Invitrogen), and analyzed using FlowJo10 software. For data normalization, the percentage value of proliferating cells in each sample was divided by the average percentage value of positive control in a single experiment. IC50 values were calculated using a three-parameter dose–response inhibition function in GraphPad Prism.

The nature of data set [8]: Plasma protein binding, mice. Conditions: mouse. The class given is in vitro ADME. The text has this: Table 5 Selected parameters measured for CPL302415 (6). | column: Plasma Protein Binding [%] / Mice
The nature of data set [9]: Plasma protein binding, human. The data set is classed as in vitro ADME. The source says:
Table 5 Selected parameters measured for CPL302415 (6). | column: Plasma Protein Binding [%] / Human

For data set [10], the target named is T3, PI3Kγ (Homo sapiens, UniProt P48736).
T3 construct: purchased Merck Millipore
T3 sequence (P48736 whole entry): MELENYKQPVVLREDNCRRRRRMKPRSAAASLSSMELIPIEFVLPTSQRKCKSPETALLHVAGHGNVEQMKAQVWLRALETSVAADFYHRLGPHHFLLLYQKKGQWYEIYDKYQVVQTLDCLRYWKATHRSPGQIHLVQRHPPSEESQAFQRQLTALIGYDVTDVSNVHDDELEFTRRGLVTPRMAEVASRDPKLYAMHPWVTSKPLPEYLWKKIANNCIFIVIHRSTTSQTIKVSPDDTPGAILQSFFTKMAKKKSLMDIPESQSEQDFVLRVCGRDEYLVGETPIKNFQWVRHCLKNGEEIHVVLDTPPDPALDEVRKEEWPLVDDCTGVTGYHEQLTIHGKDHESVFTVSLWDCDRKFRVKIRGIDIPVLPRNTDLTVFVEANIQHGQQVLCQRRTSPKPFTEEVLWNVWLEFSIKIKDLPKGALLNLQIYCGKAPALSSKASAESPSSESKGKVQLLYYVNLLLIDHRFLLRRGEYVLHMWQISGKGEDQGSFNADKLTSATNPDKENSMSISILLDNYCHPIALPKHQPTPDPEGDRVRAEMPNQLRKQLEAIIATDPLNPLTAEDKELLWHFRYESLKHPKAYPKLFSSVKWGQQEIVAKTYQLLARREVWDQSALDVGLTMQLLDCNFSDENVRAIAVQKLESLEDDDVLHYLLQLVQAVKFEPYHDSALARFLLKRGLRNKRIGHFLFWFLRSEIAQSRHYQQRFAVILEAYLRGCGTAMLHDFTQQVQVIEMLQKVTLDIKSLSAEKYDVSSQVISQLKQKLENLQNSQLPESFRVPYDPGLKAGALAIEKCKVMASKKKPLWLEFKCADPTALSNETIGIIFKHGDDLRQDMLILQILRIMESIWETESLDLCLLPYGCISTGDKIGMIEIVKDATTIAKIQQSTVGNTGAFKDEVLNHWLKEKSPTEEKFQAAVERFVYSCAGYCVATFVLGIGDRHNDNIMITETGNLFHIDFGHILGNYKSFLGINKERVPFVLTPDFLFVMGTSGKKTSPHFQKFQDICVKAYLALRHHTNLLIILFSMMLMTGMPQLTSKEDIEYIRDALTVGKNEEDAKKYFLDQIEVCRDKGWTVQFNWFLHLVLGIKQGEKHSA
The data set can be described thus: In vitro PI3K inhibition assay (ADP-Glo kinase assay), PI3Kγ. The class given is biochemical. Conditions: for IC50: mean of two independent experiments; for Fold Selectivity γ/δ: ratio IC50 PI3Kγ / IC50 PI3Kδ. The procedure: as §1, §2, §3

For data set [11], the target named is T4, PI3Kα (Homo sapiens, UniProt P42336).
T4 construct: purchased Merck Millipore (methods text)
T4 sequence (P42336 whole entry): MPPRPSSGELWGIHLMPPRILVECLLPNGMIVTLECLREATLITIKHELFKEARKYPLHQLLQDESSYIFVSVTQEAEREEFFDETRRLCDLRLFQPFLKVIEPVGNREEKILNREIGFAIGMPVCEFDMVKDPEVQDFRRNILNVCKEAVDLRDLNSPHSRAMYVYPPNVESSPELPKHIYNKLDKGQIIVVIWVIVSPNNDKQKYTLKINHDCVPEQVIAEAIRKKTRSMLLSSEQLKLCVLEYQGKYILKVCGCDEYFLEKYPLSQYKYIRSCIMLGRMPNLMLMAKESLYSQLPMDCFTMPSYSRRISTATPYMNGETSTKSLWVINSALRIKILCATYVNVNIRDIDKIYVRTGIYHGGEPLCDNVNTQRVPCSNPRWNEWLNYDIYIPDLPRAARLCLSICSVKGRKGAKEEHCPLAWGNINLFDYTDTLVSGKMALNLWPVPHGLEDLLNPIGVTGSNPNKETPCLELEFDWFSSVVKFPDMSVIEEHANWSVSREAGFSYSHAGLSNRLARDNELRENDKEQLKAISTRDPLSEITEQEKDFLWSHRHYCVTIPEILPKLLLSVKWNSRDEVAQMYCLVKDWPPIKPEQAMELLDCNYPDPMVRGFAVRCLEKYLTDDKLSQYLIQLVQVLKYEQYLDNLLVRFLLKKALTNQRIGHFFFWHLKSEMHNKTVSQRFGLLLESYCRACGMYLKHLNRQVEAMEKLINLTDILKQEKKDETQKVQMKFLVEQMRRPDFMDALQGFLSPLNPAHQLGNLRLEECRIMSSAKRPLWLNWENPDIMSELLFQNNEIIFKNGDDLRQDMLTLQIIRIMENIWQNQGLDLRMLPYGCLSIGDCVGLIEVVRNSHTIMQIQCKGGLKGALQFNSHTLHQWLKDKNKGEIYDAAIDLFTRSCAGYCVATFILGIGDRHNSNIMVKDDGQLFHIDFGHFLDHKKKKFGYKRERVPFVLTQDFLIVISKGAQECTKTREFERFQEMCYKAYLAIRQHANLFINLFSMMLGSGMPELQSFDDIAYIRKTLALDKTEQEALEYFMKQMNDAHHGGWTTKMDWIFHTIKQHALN
T4 sequence (P27986 whole entry partner): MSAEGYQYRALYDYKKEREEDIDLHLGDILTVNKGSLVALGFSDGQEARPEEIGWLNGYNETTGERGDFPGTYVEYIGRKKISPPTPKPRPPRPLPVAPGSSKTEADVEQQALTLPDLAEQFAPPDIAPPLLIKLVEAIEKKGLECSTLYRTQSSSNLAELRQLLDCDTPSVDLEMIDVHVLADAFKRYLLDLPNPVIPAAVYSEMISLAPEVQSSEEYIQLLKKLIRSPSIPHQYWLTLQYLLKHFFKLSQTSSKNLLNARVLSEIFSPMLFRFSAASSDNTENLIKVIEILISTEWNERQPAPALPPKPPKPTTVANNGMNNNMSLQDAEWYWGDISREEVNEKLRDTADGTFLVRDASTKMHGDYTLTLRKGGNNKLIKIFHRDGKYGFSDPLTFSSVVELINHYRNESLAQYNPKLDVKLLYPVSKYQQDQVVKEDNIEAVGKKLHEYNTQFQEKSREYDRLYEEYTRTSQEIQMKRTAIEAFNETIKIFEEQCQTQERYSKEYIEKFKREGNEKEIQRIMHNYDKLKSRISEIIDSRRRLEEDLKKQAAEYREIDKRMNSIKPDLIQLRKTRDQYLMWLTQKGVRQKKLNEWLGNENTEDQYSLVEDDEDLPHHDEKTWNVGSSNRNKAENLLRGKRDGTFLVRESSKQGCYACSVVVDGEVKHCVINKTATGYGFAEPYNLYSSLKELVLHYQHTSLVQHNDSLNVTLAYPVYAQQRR
Put plainly: In vitro PI3K inhibition assay (ADP-Glo kinase assay), PI3Kα. The class given is biochemical. Conditions: for Fold Selectivity α/δ: ratio IC50 PI3Kα / IC50 PI3Kδ. The procedure: as §1, §2, §3

The nature of data set [12]: Metabolic stability in mouse liver microsomes (MLM). The class given is in vitro ADME, mouse (CD-1).
Data set [13] in a line: Plasma protein binding, range across species. Conditions: human, monkey, mouse, rat, range depending on the species, read-out: plasma protein binding (PPBs). The data set is classed as in vitro ADME.
A short description of data set [14]: Plasma protein binding, monkey. The data set is classed as in vitro ADME. The text has this: Table 5 Selected parameters measured for CPL302415 (6). | column: Plasma Protein Binding [%] / Monkey
A short description of data set [15]: Plasma protein binding, rat. The data set is classed as in vitro ADME. The source says: Table 5 Selected parameters measured for CPL302415 (6). | column: Plasma Protein Binding [%] / Rat
A short description of data set [16]: Bioavailability in mice. Conditions: mouse, in vivo, depending on the formulation form, read-out: bioavailability F.
The target of data set [17] is T4, PI3Kα. The following applies: PI3Kδ versus PI3Kα, in words; cited from earlier work.
Data set [18] addresses T1, PI3Kδ. Conditions: cited from earlier work.
For data set [19], the target named is T1, PI3Kδ. The following applies: cited from earlier work. The source holds these as a separate data set.
The mark [20] stands for this setting: B cell proliferation, activated by αIgM and ODN2006, 4 days.

T1 sequence (O00329 whole entry, looked up): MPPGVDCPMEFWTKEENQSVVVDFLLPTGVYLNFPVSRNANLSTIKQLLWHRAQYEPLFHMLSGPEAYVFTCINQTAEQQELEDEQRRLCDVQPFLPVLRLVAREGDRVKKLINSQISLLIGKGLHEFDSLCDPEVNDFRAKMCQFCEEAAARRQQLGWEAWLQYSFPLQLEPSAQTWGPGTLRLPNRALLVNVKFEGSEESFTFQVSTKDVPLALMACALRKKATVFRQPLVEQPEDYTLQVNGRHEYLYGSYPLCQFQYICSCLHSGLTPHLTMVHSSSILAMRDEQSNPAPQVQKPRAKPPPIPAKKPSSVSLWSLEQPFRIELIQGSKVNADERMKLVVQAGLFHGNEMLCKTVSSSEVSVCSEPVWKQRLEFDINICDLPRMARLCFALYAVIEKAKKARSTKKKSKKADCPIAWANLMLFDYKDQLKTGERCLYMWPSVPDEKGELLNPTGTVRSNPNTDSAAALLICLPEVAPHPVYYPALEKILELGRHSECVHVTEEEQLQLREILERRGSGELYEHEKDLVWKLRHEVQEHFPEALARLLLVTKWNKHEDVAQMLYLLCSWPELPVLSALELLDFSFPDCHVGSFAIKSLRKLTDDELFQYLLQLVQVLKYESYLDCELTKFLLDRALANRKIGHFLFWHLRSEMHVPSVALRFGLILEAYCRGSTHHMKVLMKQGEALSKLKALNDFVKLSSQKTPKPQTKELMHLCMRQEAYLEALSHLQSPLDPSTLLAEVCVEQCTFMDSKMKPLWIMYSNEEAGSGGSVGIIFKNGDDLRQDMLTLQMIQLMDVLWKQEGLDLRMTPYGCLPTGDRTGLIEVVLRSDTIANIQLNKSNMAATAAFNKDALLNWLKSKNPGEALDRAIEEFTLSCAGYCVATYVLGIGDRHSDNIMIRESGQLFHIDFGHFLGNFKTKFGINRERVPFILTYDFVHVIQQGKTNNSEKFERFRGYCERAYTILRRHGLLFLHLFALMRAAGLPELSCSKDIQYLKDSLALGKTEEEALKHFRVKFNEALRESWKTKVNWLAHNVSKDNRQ
T2 sequence (P42338 whole entry, looked up): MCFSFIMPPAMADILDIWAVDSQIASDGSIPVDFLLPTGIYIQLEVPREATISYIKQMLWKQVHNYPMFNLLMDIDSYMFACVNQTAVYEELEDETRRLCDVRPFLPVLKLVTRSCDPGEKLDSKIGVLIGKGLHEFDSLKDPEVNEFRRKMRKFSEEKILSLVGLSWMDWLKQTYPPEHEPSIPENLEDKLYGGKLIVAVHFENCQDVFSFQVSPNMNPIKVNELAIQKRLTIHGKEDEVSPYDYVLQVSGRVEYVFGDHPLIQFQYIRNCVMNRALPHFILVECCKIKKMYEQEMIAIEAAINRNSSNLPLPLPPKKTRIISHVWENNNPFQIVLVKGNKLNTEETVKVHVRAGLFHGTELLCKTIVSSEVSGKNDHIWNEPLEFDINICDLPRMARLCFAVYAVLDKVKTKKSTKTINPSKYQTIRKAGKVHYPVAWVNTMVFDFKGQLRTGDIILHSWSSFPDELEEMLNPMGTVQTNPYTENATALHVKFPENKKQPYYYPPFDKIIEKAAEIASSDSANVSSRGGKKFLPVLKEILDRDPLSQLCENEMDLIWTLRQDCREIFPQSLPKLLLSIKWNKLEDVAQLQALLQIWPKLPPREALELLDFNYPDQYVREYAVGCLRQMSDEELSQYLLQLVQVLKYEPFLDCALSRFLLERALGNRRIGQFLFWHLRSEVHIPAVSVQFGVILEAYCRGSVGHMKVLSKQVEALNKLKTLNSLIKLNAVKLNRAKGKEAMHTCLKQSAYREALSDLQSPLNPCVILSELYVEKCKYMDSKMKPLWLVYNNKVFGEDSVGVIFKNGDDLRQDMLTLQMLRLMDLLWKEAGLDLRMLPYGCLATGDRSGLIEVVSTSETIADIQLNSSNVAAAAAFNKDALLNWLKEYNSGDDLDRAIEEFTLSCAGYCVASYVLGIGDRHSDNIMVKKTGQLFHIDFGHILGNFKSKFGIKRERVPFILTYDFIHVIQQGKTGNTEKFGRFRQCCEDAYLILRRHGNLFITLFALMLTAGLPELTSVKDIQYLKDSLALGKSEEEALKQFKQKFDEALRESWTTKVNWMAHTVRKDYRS

For the compound `CC(C)(C)N1CCN(Cc2cc3nc(-n4c(C(F)F)nc5ccccc54)cc(N4CCOCC4)n3n2)CC1` [Compound 6, 1-{2-[(4-tert-butylpiperazin-1-yl)methyl]-7-(morpholin-4-yl)pyrazolo[1,5-a]pyrimidin-5-yl}-2-(difluoromethyl)-1H-benzimidazole], the kinetic solubility (commonly the concentration staying in solution when a stock, usually in DMSO, is diluted into the medium) at 24 h in data set [1] was over 500 µM. Besides, the IC50 (commonly the concentration needed to halve the response being measured) was 18 nM in data set [2]; 25.5 µM in data set [6]; 41 nM in data set [7] (B-cell); 16.9 µM in data set [10]; 1430 nM in data set [11]. The half-life at 1 μM in data set [3] turned out to be 145 min; in data set [12] (CD-1, read-out: Metabolic Stability MLM t½) it was 378 min. In data set [4], the Papp (usually a coefficient for how fast a substance crosses the barrier) is 13.3 ×10⁻⁶ cm/s. The bioavailability (commonly dose-corrected exposure relative to a reference, in per cent) was over 90% in data set [5] and over 55% in data set [16]. Also, in [6], the “Fold Selectivity β/δ” value came out at 1415. In addition, the fraction unbound in data set [8] was 0.17; in data set [9], 0.21; in [13], 0.17 to 0.21; in data set [14] it was 0.19; in [15], 0.18. Further, the “Fold Selectivity γ/δ” value in data set [10] is 939. Moreover, in data set [11], the “Fold Selectivity α/δ” value was 79. The microsomal CLint at 1 μM in data set [12] (CD-1, read-out: Metabolic Stability MLM CL) stood at 3.7 µL/min/mg.

As for `Cc1cc2nc(-n3c(C(F)F)nc4ccccc43)cc(N3CCOCC3)n2n1` [Compound 1], the “selectivity toward the alpha isoform” value in data set [17] was “poor”. Further, in [18], the IC50 was 475 nM.

With `CS(=O)(=O)N1CCN(Cc2cc3nc(-n4c(C(F)F)nc5ccccc54)cc(N4CCOCC4)n3n2)CC1` [Compound 16, 2-(difluoromethyl)-1-{2-[(4-methanesulfonylpiperazin-1-yl)methyl]-7-(morpholin-4-yl)pyrazolo[1,5-a]pyrimidin-5-yl}-1H-1,3-benzimidazole], the IC50 in data set [2] worked out at 43 nM; in [6], 13.6 µM; in [7] (setting [20]), 114 nM; in data set [10], 0.111 µM; in data set [11] it was 44 nM. The “Fold Selectivity β/δ” value in [6] worked out at 316. Besides, the “Fold Selectivity γ/δ” value in data set [10] stood at 2.6. Further, the “Fold Selectivity α/δ” value in data set [11] was found to be 1.0.

As for `Cc1nc2ccccc2n1-c1cc(N2CCOCC2)n2nc(CN3CCN(C(C)(C)C)CC3)cc2n1` [Compound 5, 1-{2-[(4-tert-butylpiperazin-1-yl)methyl]-7-(morpholin-4-yl)pyrazolo[1,5-a]pyrimidin-5-yl}-2-methyl-1H-benzimidazole], the IC50 in [2] stood at 236 nM; in data set [6] it was 298 µM; in data set [10] it was 175 µM; in data set [11] it was 10600 nM. The “Fold Selectivity β/δ” value in data set [6] turned out to be 1264. For the same compound, the “Fold Selectivity γ/δ” value in data set [10] worked out at 742. Further, the “Fold Selectivity α/δ” value in data set [11] was determined as 45.

As for `O=C(C1CC1)N1CCN(Cc2cc3nc(-n4c(C(F)F)nc5ccccc54)cc(N4CCOCC4)n3n2)CC1` [Compound 18], the IC50 is 24 nM in data set [2]; 47.4 µM in data set [6]; 58 nM in data set [7] (setting [20]); 0.156 µM in [10]; 73 nM in [11]. Besides, the “Fold Selectivity β/δ” value in data set [6] was determined as 1973. The “Fold Selectivity γ/δ” value in data set [10] was 6.5. For the same compound, the “Fold Selectivity α/δ” value in [11] is 3.0.

In the case of `CC(C)(C(N)=O)N1CCN(Cc2cc3nc(-n4c(C(F)F)nc5ccccc54)cc(N4CCOCC4)n3n2)CC1` [Compound 17, 2-[4-({5-[2-(difluoromethyl)-1H-1,3-benzimidazol-1-yl]-7-(morpholin-4-yl)pyrazolo[1,5-a]pyrimidin-2-yl}methyl)piperazin-1-yl]-2-methylpropanamide], the IC50 was determined as 31 nM in data set [2]; 44.8 µM in [6]; 52 nM in data set [7] (setting [20]); 2.2 µM in data set [10]; 624 nM in data set [11]. The “Fold Selectivity β/δ” value in [6] worked out at 1444. In [10], the “Fold Selectivity γ/δ” value is on record as 71. Further, in data set [11], the “Fold Selectivity α/δ” value came out at 20.

For `CS(=O)(=O)N1CCN(Cc2cc3nc(-c4cccc5[nH]ncc45)nc(N4CCOCC4)c3s2)CC1` [GDC-0941, 2-(1 H -Indazol-4-Yl)-6-(4-Methanesulfonyl-Piperazin-1-Ylmethyl)-4-Morpholin-4-Yl-Thieno [3,2-d]Pyrimidine], the PI3Kγ/δ selectivity result in data set [19] is reported as “poor”.

Turning to `CCc1nc2ccccc2n1-c1cc(N2CCOCC2)n2nc(CN3CCN(C(C)(C)C)CC3)cc2n1` [Compound 7, 1-{2-[(4-tert-butylpiperazin-1-yl)methyl]-7-(morpholin-4-yl)pyrazolo[1,5-a]pyrimidin-5-yl}-2-ethyl-1H-benzimidazole], in data set [2], the concentration for half-maximal inhibition (IC50) is 385 nM. In data set [6], inhibition was half-maximal at 266 µM (IC50) and the “Fold Selectivity β/δ” value came to 690. In [10], the midpoint of inhibition, the IC50, lay at 258 µM and the “Fold Selectivity γ/δ” value is reported as 671. In data set [11], the IC50 came to 28700 nM and the “Fold Selectivity α/δ” value came out at 74.
